Data on 8 molecules can be found in patent US8063072B2 (Roche Palo Alto LLC, priority 2009, dated 2011).

The target in data set [1] is T1, HCV polymerase (NS5B570n-Con1) (Hepatitis C virus genotype 1b, UniProt Q9WMX2).
T1 construct: contains a 21 amino acid deletion at the C-terminus relative to the full-length HCV polymerase; 6-histidine (His6) (N); made in house; host or cells: E. coli BL21(DE) pLysS, plasmid pET17b
Nature of the data set: HCV NS5B RNA polymerase activity. It is filed as biochemical, HCV Con1 strain. The method, then: The enzymatic activity of HCV polymerase (NS5B570n-Con1) was measured as the incorporation of radiolabeled nucleotide monophosphates into acid insoluble RNA products. Unincorporated radiolabeled substrate was removed by filtration and scintillant was added to the washed and dried filter plate containing radiolabeled RNA product. The amount of RNA product generated by NS5B570-Con1 at the end of the reaction was directly proportional to the amount of light emitted by the scintillant.
The N-terminal 6-histidine tagged HCV polymerase, derived from HCV Con1 strain, genotype 1b (NS5B570n-Con1) contains a 21 amino acid deletion at the C-terminus relative to the full-length HCV polymerase and was purified from E. coli strain BL21(DE) pLysS. The construct, containing the coding sequence of HCV NS5B Con1 (GenBank accession number AJ242654) was inserted into the plasmid construct pET17b, downstream of a T7 promoter expression cassette and transformed into E. coli. A single colony was grown overnight as a starter culture and later used inoculate 10 L of LB media supplemented with 100 μg/mL ampicillin at 37° C. Protein expression was induced by the addition of 0.25 mM isopropyl-β-D-thiogalactopyranoside (IPTG) when optical density at […] of the culture was between 0.6 and 0.8 and cells were harvested after 16 to 18 h at 30° C. NS5B570n-Con1 was purified to homogeneity using a three-step protocol including subsequent column chromatography on Ni-NTA, SP-Sepharose HP and Superdex 75 resins.
Each 50 μL enzymatic reaction contained 20 nM RNA template derived from the complementary sequence of the Internal Ribosome Entry Site (cIRES), 20 nM NS5B570n-Con1 enzyme, 0.5 μCi of tritiated UTP (Perkin Elmer catalog no. TRK-412; specific activity: 30 to 60 Ci/mmol; stock solution concentration from 7.5×10^-5 M to 20.6×10^-6 M), 1 μM each ATP, CTP, and GTP, 40 mM Tris-HCl pH 8.0, 40 mM NaCl, 4 mM DTT (dithiothreitol), 4 mM MgCl2, and 5 μl of compound serial diluted in DMSO. Reaction mixtures were assembled in 96-well filter plates (cat #MADVNOB, Millipore Co.) and incubated for 2 h at 30° C. Reactions were stopped by addition of 10% final (v/v) trichloroacetic acid and incubated for 40 min at 4° C. Reactions were filtered, washed with 8 reaction volumes of 10% (v/v) trichloroacetic acetic acid, 4 reaction volumes of 70% (v/v) ethanol, air dried, and 25 μl of scintillant (Microscint 20, Perkin-Elmer) was added to each reaction well.
The amount of light emitted from the scintillant was converted to counts per minute (CPM) on a Topcount® plate reader (Perkin-Elmer, Energy Range: Low, Efficiency Mode: Normal, Count Time: 1 min, Background Subtract: none, Cross talk reduction: Off).
Data was analyzed in Excel® (Microsoft) and ActivityBase® (Idbs®). The reaction in the absence of enzyme was used to determine the background signal, which was subtracted from the enzymatic reactions. Positive control reactions were performed in the absence of compound, from which the background corrected activity was set as 100% polymerase activity. All data was expressed as a percentage of the positive control. The compound concentration at which the enzyme-catalyzed rate of RNA synthesis was reduced by 50% (IC50) was calculated by fitting equation (i) to the data where“Y”
[formula] corresponds to the relative enzyme activity (in %), “% Min” is the residual relative activity at saturating compound concentration, “% Max” is the relative maximum enzymatic activity, “X” corresponds to the compound concentration, and “S” is the Hill coefficient (or slope).

In data set [2] the test system is genotype 1b replicon in HCV replicon cells (2209-23). Nature of the data set: HCV replicon assay (Renilla luciferase reporter). The class given is cell-based, HCV genotype 1b. Conditions: Hepatitis C virus, 72 h; cell line 2209-23, three days incubation, luciferase readout.
The nature of data set [3]: in vitro. Conditions: human.
Data set [4] deals with HCV. Conditions: cited from earlier work.

`CC(C)(C)c1cc(/C=C/c2ccc(NS(C)(=O)=O)cc2)cc(-c2ccc[nH]c2=O)n1` [Compound I-1] gave a melting point of 258 to 260 °C. In data set [1], this molecule yielded an IC50 of 4 nM. The same molecule had an IC50 in data set [2] of 108 nM. In data set [3], this molecule yielded a CC50 of 15.1 µM.

The molecule `CC(C)(C)c1cc(/C=C/c2ccc(NS(C)(=O)=O)cc2)c(O)c(-c2ccc[nH]c2=O)n1` [Compound I-2, N-{4-[(E)-2-(6-tert-Butyl-3-hydroxy-2′-oxo-1′,2′-dihydro-[2,3′]bipyridinyl-4-yl)-vinyl]-phenyl}-methanesulfonamide] displayed a melting point of 178 to 180 °C. Further, the concentration for half-maximal inhibition (IC50) in data set [1] stood at 177 nM.

Consider `CC(C)(C)c1cc(CCc2ccc(NS(C)(=O)=O)cc2)c(O)c(-c2ccc[nH]c2=O)n1` [Compound I-3, N-{4-[2-(6-tert-Butyl-3-hydroxy-2′-oxo-1′,2′-dihydro-[2,3′]bipyridinyl-4-yl)-ethyl]-phenyl}-methanesulfonamide], for which the melting point was in the range of 123 to 125 °C. The same molecule came in with a half-maximal inhibitory concentration (IC50) in data set [1] of 27 nM. In data set [2], this molecule yielded a 50% inhibitory concentration (IC50) of 566 nM.

On to `COC(=O)c1cc(C(C)(C)C)nc(-c2ccc[nH]c2=O)c1C#N` [Compound I-4, 6-tert-Butyl-3-cyano-2′-oxo-1′,2′-dihydro-[2,3′]bipyridinyl-4-carboxylic acid methyl ester], for which the melting point fell in the range of 228 to 230 °C. Inhibition in data set [1] was half-maximal at 5640 nM (IC50).

As to `CC(C)(C)c1cc(C(=O)N[C@H]2CC[C@H](NS(C)(=O)=O)CC2)c(C#N)c(-c2ccc[nH]c2=O)n1` [Compound I-5, 6-tert-Butyl-3-cyano-2′-oxo-1′,2′-dihydro-[2,3′]bipyridinyl-4-carboxylic acid (4-methanesulfonylamino-cyclohexyl)-amide], the melting point was 208 to 210 °C. The same molecule came in with a concentration for half-maximal inhibition (IC50) in data set [1] of 42 nM.

`CC(C)(C)c1cc(CCc2ccc(NS(C)(=O)=O)cc2)c(C#N)c(-c2ccc[nH]c2=O)n1` [Compound I-6, N-{4-[2-(6-tert-Butyl-3-cyano-2′-oxo-1′,2′-dihydro-[2,3′]bipyridinyl-4-yl)-ethyl]-phenyl}-methanesulfonamide]: the IC50 in data set [1] stood at 4 nM.

With `CC(C)(C)c1nc(/C=C/c2ccc(NS(C)(=O)=O)cc2)cc(-c2ccc[nH]c2=O)n1` [Compound I-7, N-(4-{(E)-2-[2-tert-Butyl-6-(2-oxo-1,2-dihydro-pyridin-3-yl)-pyrimidin-4-yl]-vinyl}-phenyl)-methanesulfonamide], the melting point lay in the range of 271 to 273 °C. For the same molecule, in data set [1], the IC50 came out at 10 nM.

With `NC(=O)c1ncn([C@@H]2O[C@H](CO)[C@@H](O)[C@H]2O)n1` [ribavirin, 1-((2R,3R,4S,5R)-3,4-Dihydroxy-5-hydroxymethyl-tetrahydro-furan-2-yl)-1H-[1,2,4]triazole-3-carboxylic acid amide], in data set [4] (monotherapy / sole treatment), the “effect on serum levels of HCV-RNA” value is recorded as “does not lower serum levels of HCV-RNA”. In addition, the “patients with serum amino transferase levels reduced to normal” value in data set [4] (monotherapy) was 40%.
